Our source for the Activity values is ChEMBL document CHEMBL4616707, “Rationally Designed Covalent BCL6 Inhibitor That Targets a Tyrosine Residue in the Homodimer Interface” (ACS Med Chem Lett, 2020).

Each structure is given as a SMILES string. Calls of active or inactive are those of the source. The calls are words filed in the database; no cut-off is given here.

Assay [1] deals with B-cell lymphoma 6 protein (Homo sapiens) (UniProt P41182). Nature of the assay: Binding affinity to recombinant human BCL6 (48 to 66 residues) assessed as protein compound adduct formation via Tyr58 residue after 2 hrs by LC-MS/MS analysis.
Assay [2] shares this target. Kind of assay: Covalent inhibition of human wild type BCL6 expressed in HEK293T cells transfected with eGFP assessed as rescue of BI-3802-induced BCL6 degradation at 5 uM incubated for 30 hrs followed by […] addition and measured after 5 hrs by flow cytometry based mCherry reporter gene analysis. The settings on record: HEK-293T. Format: cell-based. (In general: In flow cytometry, cells or beads pass a laser one at a time.)

Assay [3] has as its system SUD4. Nature of the assay: Antiproliferative activity against human SU-DHL4 cells assessed as growth inhibition at 6.2 uM after 5 days by Celltiter-Glo assay. Format: functional, cell-based. On the technique in general: In ATP-based viability assays light output follows the ATP content of the culture.

Consider `O=C1Cc2cc(Nc3nc(NCc4cccc(S(=O)(=O)F)c4)ncc3Cl)ccc2N1`, for which the result in assay [1] and in assay [2] was Active.
As to `CNC(=O)COc1cc2cc(Nc3nc(NCc4cccc(S(=O)(=O)F)c4)ncc3Cl)cc(OC)c2n(C)c1=O`, the outcome in assay [3], in assay [1] and in assay [2] was Active.
For `CNC(=O)COc1cc2cc(Nc3nc(NCc4cccc(S(C)(=O)=O)c4)ncc3Cl)cc(OC)c2n(C)c1=O`, the result in assay [3] was inactive.
